How the values were obtained:
[1] = tested on: ovarian carcinoma cell line A2780; assay: MTT colorimetric cell growth assay (Mossman), A2780; type: cell-based, human; settings: 48 hour MTT assay
Description: (§1) A human ovarian carcinoma cell line A2780 and its cis-platin-resistant derivative 2780CP ( see Masuda et al., Cancer Res., 50, 1863-1866, 1990), an EJ bladder carcinoma cell line (Accession No.85061108, European Collection of Animal Cell Cultures, Porton Down, UK ) and Rat-1 fibroblasts (Lania et al., Virology, 101, 217-232, 1980) were continuously maintained in RPMI 1640 medium (GIBCOBRL, Life technologies Ltd, Paisley, Scotland) supplemented with 10% FCS (foetal calf serum - ICN Flow, Thane, Oxfordshire, England), 2mM glutamine, and the antibiotics, penicillin (1000 U/ml) and streptomycin (1mg/ml) (Sigma Co. Ltd, Poole, Dorset, England) at 37°C in a 5% CO2 atmosphere.
(§2) Inhibition of cell proliferation was evaluated using the colorimetric assay of Mossman (see Mossman, J. Immunol. Meths., 65, 55-63, 1983). […] Various concentrations of G28.5 mAb were then added and their effect on cell growth was evaluated after an appropriate period of time (48, 72 or 96 hrs) by the addition of 20 µl of 5 mg/ml MTT (3-([…])-2,5-diphenyl tetrazolium bromide) obtained from Sigma, in PBS. The cells were further incubated for 5 hrs at 37°C, formazan crystals thus formed were dissolved in DMSO and the optical density (O.D.) was recorded at 550nm on a Becton Dickinson Multiscan. […] After 48 hours, cell growth was assessed using the MTT assay as described above. […]

[2] = tested on: Rat-1/CD40 CI.8 cell line; assay: MTT colorimetric cell growth assay (Mossman), CD40-transfected Rat-1 fibroblasts; type: cell-based
Description: as §1, with “atmosphere. […]” for “atmosphere.”
as §2

## N.N.[Cl][Pt][Cl] [cis-platin]
[1]; 5 µM cis-platin alone
  cell killing effect: 46%
[1]; 5 µM cis-platin with 10 µg/ml G28.5 mAb
  cell killing effect: 61%
[2]; cis-platin with 1 µg/ml G28.5 mAb, spread +/- 0.3
  IC50: 4.2 µM
[2]; cis-platin without G28.5 mAb, spread +/- 0.9
  IC50: 6 µM
